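Cells were grown in 96-well plates and exposed to each compound for 48 hours at five concentrations; endpoints were interpolated linearly between bracketing concentrations, or set to the highest concentration if not reached. At the TGI there is no net growth.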
What was measured:
Experiment in all cases: NCI-60 cell line screen, 48 h
SF-295 CNS = system: SF-295 CNS
MDA-MB-231 breast = system: MDA-MB-231 breast
HCC-2998 colon = system: HCC-2998 colon
RPMI-8226 leukemia = system: RPMI-8226 leukemia
SNB-75 CNS = system: SNB-75 CNS
SK-MEL-5 melanoma = system: SK-MEL-5 melanoma
BT-549 breast = system: BT-549 breast
HL-60(TB) leukemia = system: HL-60(TB) leukemia
OVCAR-4 ovarian = system: OVCAR-4 ovarian
SR leukemia = system: SR leukemia
UACC-257 melanoma = system: UACC-257 melanoma
SK-MEL-2 melanoma = system: SK-MEL-2 melanoma
SN12C renal = system: SN12C renal
SK-MEL-28 melanoma = system: SK-MEL-28 melanoma
UACC-62 melanoma = system: UACC-62 melanoma
KM12 colon = system: KM12 colon
TK-10 renal = system: TK-10 renal
MDA-MB-435 = system: MDA-MB-435
CCRF-CEM leukemia = system: CCRF-CEM leukemia

SMILES	TGI (SF-295 CNS)	TGI (MDA-MB-231 breast)	TGI (HCC-2998 colon)	TGI (RPMI-8226 leukemia)	TGI (SNB-75 CNS)	TGI (SK-MEL-5 melanoma)	TGI (BT-549 breast)	TGI (HL-60(TB) leukemia)	TGI (OVCAR-4 ovarian)	TGI (SR leukemia)	TGI (UACC-257 melanoma)	TGI (SK-MEL-2 melanoma)	TGI (SN12C renal)	TGI (SK-MEL-28 melanoma)	TGI (UACC-62 melanoma)	TGI (KM12 colon)	TGI (TK-10 renal)	TGI (MDA-MB-435)	TGI (CCRF-CEM leukemia)
CC(=O)OCC1OC(SC2=N/C(=C\c3cc4c(=O)c5ccccc5sc4s3)C(=O)N2c2ccccc2)C(OC(C)=O)C(OC(C)=O)C1OC(C)=O (stereo not given)	> 100 µM	> 100 µM	> 100 µM	> 100 µM	> 100 µM	> 100 µM	> 100 µM	53.3 µM	> 100 µM	> 100 µM	> 100 µM	> 100 µM	> 100 µM	> 100 µM	> 100 µM	> 100 µM	> 100 µM	> 100 µM	–
O=CC(=C(I)I)c1ccccc1	31.2 µM	5.57 µM	26.4 µM	2.62 µM	9.97 µM	14 µM	14.1 µM	0.275 µM	4.37 µM	1.25 µM	8.05 µM	23.2 µM	6.39 µM	7.36 µM	17.5 µM	12.7 µM	5.83 µM	5.65 µM	0.65 µM
S=c1sc2c(s1)SCCCCSCCCCSc1sc(=S)sc1SCCCCSCCCCS2	> 100 µM	> 100 µM	> 100 µM	> 100 µM	59.2 µM	> 100 µM	> 100 µM	> 100 µM	–	> 100 µM	> 100 µM	> 100 µM	> 100 µM	> 100 µM	> 100 µM	> 100 µM	> 100 µM	> 100 µM	> 100 µM
CSc1ncc2c(C#N)c3sc4ccccc4n3c(=O)c2n1	> 100 µM	> 100 µM	> 100 µM	> 100 µM	> 100 µM	> 100 µM	> 100 µM	> 100 µM	> 100 µM	> 100 µM	> 100 µM	> 100 µM	> 100 µM	> 100 µM	> 100 µM	> 100 µM	> 100 µM	> 100 µM	> 100 µM
COc1cc(C=C2C(C)=NN(c3cccc(Cl)c3)C23SCC(=O)N3c2nc3ccccc3s2)ccc1O (stereo not given)	> 100 µM	54.6 µM	> 83.5 µM	30.7 µM	–	40.7 µM	58.8 µM	26.7 µM	> 100 µM	29.2 µM	> 100 µM	39.5 µM	> 100 µM	> 100 µM	96.1 µM	> 95.1 µM	> 100 µM	> 100 µM	15.8 µM
CCOC(=O)N/N=C(/OCC)c1ccccc1	> 100 µM	> 100 µM	> 100 µM	> 100 µM	–	> 100 µM	> 100 µM	> 100 µM	> 100 µM	> 100 µM	> 100 µM	> 100 µM	> 100 µM	> 100 µM	> 100 µM	> 100 µM	> 100 µM	> 100 µM	> 100 µM
CC(=O)N1C(Nc2ccccn2)CCN1c1ccccc1 (stereo not given)	> 10 µM	> 10 µM	> 10 µM	> 10 µM	> 10 µM	> 10 µM	> 10 µM	> 10 µM	> 10 µM	> 10 µM	> 10 µM	> 10 µM	> 10 µM	> 10 µM	–	–	> 10 µM	> 10 µM	> 10 µM
CCOC(=O)N(Cc1cccs1)c1cc(OC)c(OC)c(OC)c1	> 100 µM	> 100 µM	> 100 µM	51.9 µM	> 100 µM	> 100 µM	> 100 µM	> 100 µM	> 100 µM	65.5 µM	> 100 µM	> 100 µM	> 100 µM	> 100 µM	> 100 µM	> 100 µM	> 100 µM	63.2 µM	69.3 µM
COc1ccc(/C=C2\C(=O)N(C3OC(COC(C)=O)C(OC(C)=O)C(OC(C)=O)C3OC(C)=O)c3ccccc3N=C2N)cc1 (stereo not given)	72.1 µM	> 100 µM	54.4 µM	37.5 µM	54 µM	23.4 µM	71.6 µM	41.9 µM	> 100 µM	53.6 µM	72.5 µM	66.9 µM	> 100 µM	72.2 µM	45.8 µM	> 100 µM	99.2 µM	35.7 µM	> 100 µM
CCSCCC(N)C(=O)O (stereo not given)	> 100 µM	> 100 µM	> 100 µM	> 100 µM	> 100 µM	> 100 µM	> 100 µM	> 100 µM	> 100 µM	> 100 µM	> 100 µM	> 100 µM	> 100 µM	> 100 µM	> 100 µM	> 100 µM	> 100 µM	> 100 µM	–
O=c1cc(NNc2ccccc2)[nH]c(=S)[nH]1	> 100 µM	65.2 µM	50.5 µM	58.6 µM	> 100 µM	> 100 µM	> 100 µM	62.6 µM	> 100 µM	70.3 µM	> 100 µM	61.3 µM	> 100 µM	> 100 µM	> 100 µM	> 100 µM	90.6 µM	> 100 µM	88.6 µM
Cc1ccc(C2=Nc3cccc4cccc(c34)N2)cc1	> 100 µM	> 100 µM	> 100 µM	> 100 µM	> 100 µM	> 100 µM	> 100 µM	> 100 µM	> 100 µM	> 100 µM	> 100 µM	> 100 µM	> 100 µM	> 100 µM	> 100 µM	> 100 µM	> 100 µM	> 100 µM	> 100 µM
CCN(CC)CCC(=O)c1ccc(Oc2ccc(Cl)cc2)cc1	32.4 µM	29.2 µM	34.2 µM	16.3 µM	25.5 µM	31.2 µM	32.6 µM	59.8 µM	36.1 µM	48.7 µM	28.6 µM	32 µM	31.2 µM	32.6 µM	35.2 µM	32.2 µM	33.1 µM	34.2 µM	58.1 µM
